Values of other authors, collected in patent US12029741B1, “5 beta dihydrotestosterone pharmaceutical formulations and related methods” (priority 2021, dated 2024).

Columns and labels:
[1] = transdermal treatment; called an estimate
Vascular Vessels = details: result in words

Compound | terminal half-life [1] [h] | efficacy as a vasodilator compared with testosterone (Vascular Vessels)
C[C@]12CCC(=O)C[C@@H]1CC[C@@H]1[C@@H]2CC[C@]2(C)[C@@H](O)CC[C@@H]12 [5α-DHT, 5α-dihydrotestosterone] | 2.83 | less efficacious than testosterone
C[C@]12CCC(=O)C[C@H]1CC[C@@H]1[C@@H]2CC[C@]2(C)[C@@H](O)CC[C@@H]12 [5β-DHT, 17β-hydroxy-5β-androstan-3-one] |  | more efficacious and/or potent than testosterone
C[C@]12CC[C@H]3[C@@H](CCC4=CC(=O)CC[C@@]43C)[C@@H]1CC[C@@H]2O [testosterone] | 1.29 | 
